What is called EC50 is the concentration at which the effect is half-maximal.

Series [1] concerns long-lived protein degradation in TFEB-overexpressing cells. Description: Degradation of long-lived proteins (FIG. 8). As to conditions: 3-MA added during 4 h incubation. The class given is cell-based. Here is the method:
FIG. 8 TFEB increases autophagic proteolysis. Rate of long-lived protein degradation in TFEB-overexpressing, TFEB-depleted and control cells in either normal or starved condition. 3-methyl adenine (3MA) was added where indicated (Error bars represent standard deviations. p value (*)<0.05).
Sub-confluent cells were incubated with L-U^14C-serine for 20 h and chased for 1 h with cold media to degrade short-lived proteins. Subsequently cells were incubated with either normal media or starvation media (eventually in the presence of 3-MA) for 4 h. The rate of long-lived protein degradation was calculated from the ratio of soluble radioactivity in the media to that insoluble in the acid-precipitable cell pellet.
The applicants next measured the rate of delivery of autophagosome to lysosome using an RFP-GFP tandem tagged LC3 protein (9), which discriminates early autophagic organelles (GFP-positive/mRFP-positive) from acidified autolysosomes (GFP-negative/mRFP-positive), as the GFP signal (but not the mRFP) is quenched inside acidic compartments (9). […] Functional evidence of TFEB role in the regulation of autophagy came from the observation that degradation of long-lived proteins was enhanced by TFEB overexpression, and reduced by TFEB knock-down. This enhancement was abolished by the autophagy inhibitor 3-methyl adenine (3-MA) (10) (FIG. 8).

Series [2] deals with TFEB. The series can be described thus: TFEB nuclear localization in starved HeLa cells overexpressing TFEB, re-stimulated with media plus supplements or inhibitors (nuclear fractionation, Flag blot, immunofluorescence). In kind it is cell-based. As to conditions: for TFEB nuclear translocation compared to starved media alone: EBSS media supplemented with growth factor or cytokine (FIG. 2f). An excerpt:
(A) Scatter Plot graphs displaying the logarithmic value of the fold change differences in the relative expression levels of 51 autophagy-related genes in HeLa cells cultured in different conditions. X-axis=control group. Y-axis=treated group. Circles represent genes with increased (red) or decreased (green) fold change. Comparisons were as indicated. (B) Chromatin immunoprecipitation (ChIP) analysis. […] Values were normalized to the input and plotted as relative enrichment over a mock control. Experiments were performed in triplicate. (C) qPCR analysis of TFEB-target gene expression in normal, starved, and in TFEB-siRNA starved cells. GAPDH and HPRT represents housekeeping genes, while ATG10, ATG9A and ATG4D represent control genes (non-TFEB target genes). (D-F) HeLa cells stably overexpressing TFEB were left untreated or nutrient starved for 4 h. (D) Five fields containing 50-100 cells/each were analyzed for TFEB nuclear localization. […] (E) Cells were subjected to nuclear/cytosolic fractionation and blotted with Flag antibody. H3 and tubulin were used as nuclear and cytosolic markers, respectively. (F) Nuclear fractions were blotted with Flag and H3 (loading control) antibodies. (G) Western blot analysis of Flag, tubulin and H3 in nuclear extracts prepared from normal, starved and starved/stimulated with normal media cells for 1 h (normal) or pretreated with AP-2 (AKT inhibitor), Rapamycin (mTOR inhibitor) and U0126 (MEK inhibitor) 1 h prior to media stimulation. Total extracts were used to verify the efficiency of the inhibitors. […] Starvation was performed where indicated. (All error bars represent standard deviations. T-test (unpaired) p value (*)<0.05, (**)<0.01)
Cytosolic and nuclear fractions were subjected to Flag immunoblotting. […] Error bars represent standard deviations.
Cells were seeded at 50% of confluence in 6 well dishes and serum starved overnight (ON). Normal medium was added the following day either in presence of DMSO or kinase inhibitors. Subcellular fractionation was carried out as previously reported.
To identify the mechanism of starvation-induced activation of TFEB, the applicants analyzed its subcellular localization and post-translational modifications in starved cells.

A further series relates to TFEB target genes. Description: qPCR of TFEB target genes in primary hepatocytes (FIG. 21B, C). As to conditions: hepatocytes from TFEB conditional knockout mice (Tcfebflox/flox; alb-CRE). In kind it is cell-based, mouse. An excerpt: (§1) Subsequently, cells were lysed and protein extracts were immunoblotted with the indicated antibodies. […] Quantitative PCR (qPCR) of TFEB target genes in primary hepatocytes from control (flox/flox) and Tcfeb−/− (flox/flox; alb-Cre) mice. […] The expression levels are shown as % increased expression of the treated versus the corresponding untreated samples. Values represent means±s.d. of three independent hepatocyte preparations (three mice/genotype). Student's t-test (two tailed) *P-value ≦0.05.
(In qPCR the cycle at which signal appears reflects the starting amount.)

Series [3] relates to TFEB. Description: Lysosomal stress: TFEB-3xFLAG nuclear/cytoplasmic fractionation immunoblot in HeLa and HEK-293T cells (FIG. 18). As to conditions: treated overnight; chloroquine 100 μM, Salicylihalamide A 2 μM. In kind it is cell-based. An excerpt: FIG. 18 Lysosomal stress induces TFEB nuclear translocation. […] Histone 3 (H3) and tubulin were used as nuclear and cytosolic markers, respectively. Blots are representative of triplicate experiments.
(§2) The mouse anti-TFEB monoclonal antibody was purchased from My Biosource catalogue No. MBS 120432. To generate anti-pS142 specific antibodies, rabbits were immunized with the following peptide coupled to KLH: AGNSAPN{pSer}[…]. Following the fourth immunization, rabbits were sacrificed and the serum was collected. Non-phosphospecific antibodies were depleted from the serum by circulation through a column containing the nonphosphorylated antigene. The phosphospecific antibodies were subsequently purified using a column containing the phosphorylated peptide. Cells were lysed with M-PER buffer (Thermo) containing protease and phosphatase inhibitors (Sigma); nuclear/cytosolic fractions were isolated as above described. Proteins were separated by SDS-PAGE (Invitrogen; reduced NuPAGE 4-12% Bis-tris Gel, MES SDS buffer). If needed, the gel was stained using 20 ml Imperial Protein Stain (Thermo Fisher) at room temperature for 1 h and de-stained with water. […]
TFEB subcellular localization was then analysed in HeLa and HEK-293T cells transiently transfected with a TFEB-3×FLAG plasmid and treated overnight with inhibitors of lysosomal function.
For orientation: Immunoblotting shows a protein as a band on a membrane.

The target in the next series is mTOR (Mus musculus, UniProt Q9JLN9). The settings on record: primary hepatocytes treated overnight.
Description: as §1

For another series, the system named is mTORC1. The series can be described thus: mTORC1 activity by level of p-P70S6K in HeLa cells treated overnight (FIG. 19A). The class given is cell-based. Here is the method: (§3) Immunoblotting of protein extracts isolated from HeLa cells treated overnight, as indicated. Membranes were probed with antibodies for p-T202/Y204-ERK1/2, ERK1/2, p-T389-S6K, and S6K to measure ERK and mTORC1 activities. […] FLAG immunoblotting of cytosolic and nuclear fractions isolated from TFEB-3×FLAG HeLa cells cultured in amino acid-free media and subsequently stimulated as indicated for at least 3 h. Correct subcellular fractionation was verified with H3 and tubulin antibodies. […] After 3 h at 37° C. in RPMI medium containing one of each of the compounds, the cells were washed, fixed, and stained with DAPI and photographed by using confocal automated microscopy (Opera high content system, Perkin Elmer). […] Scale bars represent 30 μm. […] The EC50 for each compound was calculated using Prism software (see Materials and Methods for details). […] Antibody used were p-T389-S6K, S6K and FLAG. […] HeLa cells stably expressing Flag-3×TFEB were infected with lentiviruses encoding a Short hairpin (Sh-) RNA targeting luciferase (control) or RagC and RagD mRNAs. […] TFEB localization was detected with a FLAG antibody, whereas tubulin and H3 were used as controls for the cytosolic and nuclear fraction, respectively; levels of S6K phosphorylation were used to test RagC and RagD knockdown efficiency.

Series [4] concerns TFEB. The series can be described thus: High content TFEB-GFP nuclear translocation assay. The class given is cell-based. As to conditions: Homo sapiens; TFEB-GFP HeLa cells, 3 h, ten concentrations 2.54 nM to 50 μM (FIG. 19D); read-out: EC50, TFEB nuclear translocation. Here is the method: as §3
After 3 hours at 37° C. in RPMI medium cells were washed, fixed, and stained with DAPI. For the acquisition of the images, ten pictures per each well of the 384-well plate were taken by using confocal automated microscopy (Opera high content system, Perkin Elmer). A dedicated script was developed to perform the analysis of TFEB localization on the different images (Acapella software, Perkin Elmer). The script calculates the ratio value resulting from the average intensity of nuclear TFEB-GFP fluorescence divided by the average of the cytosolic intensity of TFEB-GFP fluorescence. The results were normalized using negative (RPMI medium) and positive (HBSS starvation) control samples in the same plate. The data are represented by the percentage of nuclear translocation at the different concentrations of each compound using Prism software (GraphPad software). The EC50 for each compound was calculated using non-linear regression fitting (Prism software).
In order to find additional small molecules able to induce the translocation of TFEB from the cytosol to the nucleus, the applicants developed a cell-based high content assay using stable HeLa cells overexpressing TFEB fused to the green fluorescent protein (TFEB-GFP). In the assay imaging of treated cells is acquired by an automated confocal microscope (OPERA system) and the analysis of those images with Acapella image software calculates the ratio of the average of fluorescence intensity of TFEB-GFP between the cytosol and nucleus of the cell (see Materials and methods for details). […] They tested ten concentrations for each inhibitor.

For series [5], the system named is TFEB. The series can be described thus: TFEB molecular weight shift and localization in TFEB-3xFLAG HeLa cells stimulated with amino-acid rich medium plus inhibitor (FIG. 19B). In kind it is cell-based. As to conditions: Torin 1 250 nM, Rapamycin 2.5 μM, U0126 50 μM. How it is done:
FIG. 19 mTORC1 regulates TFEB. (A) Lysosomal stress inhibits mTOR signaling. Immunoblotting of protein extracts isolated from HeLa cells treated overnight, as indicated. Membranes were probed with antibodies for p-T202/Y204-ERK1/2, ERK1/2, p-T389-S6K, and S6K to measure ERK and mTORC1 activities. […] FLAG immunoblotting of cytosolic and nuclear fractions isolated from TFEB-3×FLAG HeLa cells cultured in amino acid-free media and subsequently stimulated as indicated for at least 3 h. Correct subcellular fractionation was verified with H3 and tubulin antibodies. (C, D) Effects and dose—response curves of ERK and mTOR inhibitors on TFEB nuclear translocation. […] After 3 h at 37° C. in RPMI medium containing one of each of the compounds, the cells were washed, fixed, and stained with DAPI and photographed by using confocal automated microscopy (Opera high content system, Perkin Elmer). (C) Representative images of test concentrations for each compound. Scale bars represent 30 μm. […] The EC50 for each compound was calculated using Prism software (see Materials and Methods for details). (E) Amino acids induce TFEB molecular weight shift. Immunoblotting of protein extracts isolated from HEK-293T cells transfected either TFEB-3×FLAG or with an empty vector were nutrient starved and stimulated for 50 minutes with amino acids (a.a.). Antibody used were p-T389-S6K, S6K and FLAG. (F) Rag knockdown induces TFEB nuclear translocation. HeLa cells stably expressing Flag-3×TFEB were infected with lentiviruses encoding a Short hairpin (Sh-) RNA targeting luciferase (control) or RagC and RagD mRNAs. […] TFEB localization was detected with a FLAG antibody, whereas tubulin and H3 were used as controls for the cytosolic and nuclear fraction, respectively; levels of S6K phosphorylation were used to test RagC and RagD knockdown efficiency.
as §2

As for `Cn1cnc(N)c2ncnc1-2` [3-methyl adenine], in series [1], the “enhancement of long-lived protein degradation by TFEB overexpression” value is reported as “abolished”. With “EGF: growth factor supplemented to EBSS media (NSDSECPLSHDGYCLHDGVCMYIEALDKYACNCVVGYIGERCQYRDLKWWELR; UniProt P01133 971-1023, looked up)”, the “TFEB nuclear translocation compared to starved media alone” value with TFEB [2] is given as “significant inhibition”. `CCN(CC)CCCC(C)Nc1ccnc2cc(Cl)ccc12` (stereo not shown) [chloroquine]: the “transcriptional response of TFEB target genes versus control hepatocytes” value in the series on TFEB target genes was “significantly blunted”. Moreover, the “nuclear translocation of exogenously expressed TFEB” value with TFEB [3] is listed as “induced nuclear translocation”. The “mTOR activity as level of p-S6K” value on mTOR is recorded as “inhibited mTOR”. Further, in the series with mTORC1, the “mTORC1 activity as level of p-P70S6K” value is recorded as “inhibited mTORC1 activity”. Turning to “LIF: cytokine supplemented to EBSS media”, the “TFEB nuclear translocation compared to starved media alone” value in the series on TFEB [2] is reported as “Almost no effect”. Turning to `CC/C=C\C=C/C(=O)N/C=C/C[C@H]1C[C@@H](O)[C@@H](C)C/C=C/Cc2cccc(O)c2C(=O)O1` [Salicylihalamide A], the “nuclear translocation of exogenously expressed TFEB” value with TFEB [3] is “induced nuclear translocation”. Also, in the series on mTORC1, the “mTORC1 activity as level of p-P70S6K” value is listed as “inhibited mTORC1 activity”. Turning to insulin, the “TFEB nuclear translocation compared to starved media alone” value with TFEB [2] is listed as “significant inhibition”. As to `N#CC(=C(/N)Sc1ccccc1N)/C(C#N)=C(\N)Sc1ccccc1N` [U0126], the EC50 in the series on TFEB [4] stood at 80.4 µM. In addition, in the series with TFEB [2] (starved cells stimulated with normal medium supplemented with kinase inhibitor (FIG. 2g, 11b)), the TFEB nuclear localization result was “TFEB nuclear localization, at level similar to starvation”. Besides, in the series with TFEB [5], the “TFEB molecular weight shift induced by nutrients” value is reported as “only a partial TFEB molecular weight shift”.

(Values after patent US20140038920A1, “TFEB PHOSPHORYLATION INHIBITORS AND USES THEREOF” (FONDAZIONE TELETHON, priority 2011, published 2014).)
